In ChEMBL document CHEMBL3352547, “A concise diastereoselective approach to enantioenriched substituted piperidines and their in vitro cytotoxicity evaluation” (Bioorg Med Chem Lett, 2014) one finds IC50 data, which are given here for 17 molecules.

What all share (type): functional, cell-based
One test has as its system A549. Description: Cytotoxicity against human A549 cells by MTT assay. For orientation: Tetrazolium assays rely on reduction of a dye to a coloured formazan, in cell work by metabolically active cells.
A further test concerns DU-145. The test can be described thus: Cytotoxicity against human DU145 cells by MTT assay.
A further test has as its system HeLa. Description: Cytotoxicity against human HeLa cells by MTT assay.
In the next test the test system is MCF7. Description: Cytotoxicity against human MCF7 cells by MTT assay.
Where [1] appears, read: Homo sapiens, A549, read-out: IC50.
[2] abbreviates: Homo sapiens, DU-145, read-out: IC50.
[3] abbreviates: Homo sapiens, HeLa, read-out: IC50.
[4] abbreviates: Homo sapiens, MCF7, read-out: IC50.

SMILES strings stand for the structures.

In the case of `COC(=O)C[C@@H]1C[C@H](O)[C@H](C)[C@H](c2ccccc2)N1`, the IC50 – broadly, the point on the concentration scale where inhibition reaches its midpoint – in the test with A549 (setting [1]) amounted to 20.5 µM; in the test with DU-145 (setting [2]) it was 11.3 µM; in the test with HeLa (setting [3]), 14.2 µM; with MCF7 (setting [4]), 12.3 µM.
Taken in the same sequence, the figures for `COC(=O)C[C@@H]1C[C@@H](O)[C@H](C)[C@H](c2ccccc2)N1` were 8.5 µM, 6.3 µM, 6.5 µM and 5.4 µM.
The matching figures for `COC(=O)C[C@H]1C[C@@H](O)[C@@H](C)[C@@H](c2ccc(C)cc2)N1`: 29 µM, 49.7 µM, 13.4 µM and 12.2 µM.
On to `COC(=O)C[C@H]1C[C@H](O)[C@@H](C)[C@@H](c2ccc(C)cc2)N1`, for which the IC50 was 97.6 µM with A549 (setting [1]), 330 µM in the test on DU-145 (setting [2]), “Not Active” with HeLa (hela) and “Not Active” with MCF7 (mcf7).
With `COC(=O)C[C@H]1C[C@@H](O)[C@@H](C)[C@@H](c2ccc(C(C)C)cc2)N1`, the half-maximal inhibitory concentration (IC50) entry in the test on A549 (a549) was “Not Active”; with DU-145 (setting [2]) it was 110 µM; in the test with HeLa (hela) it was “Not Active”; in the test on MCF7 (mcf7), “Not Active”.
In the case of `COC(=O)C[C@H]1C[C@H](O)[C@@H](C)[C@@H](c2ccc(C(C)C)cc2)N1`, the IC50 entry in the test on A549 (a549) is “Not Active”; in the test with DU-145 (setting [2]) it was 27.4 µM; in the test with HeLa (setting [3]), 18.2 µM; with MCF7 (setting [4]) it was 17.1 µM.
For `COC(=O)C[C@H]1C[C@@H](O)[C@@H](C)[C@@H](c2ccc(OC)cc2)N1`, the IC50 in the test with A549 (setting [1]) was 23.5 µM; in the test with DU-145 (setting [2]), 12.6 µM; with HeLa (setting [3]), 11.5 µM; with MCF7 (setting [4]), 10.4 µM.
The matching figures for `COC(=O)C[C@H]1C[C@H](O)[C@@H](C)[C@@H](c2ccc(OC)cc2)N1`: 5.4 µM, 6.5 µM, 5.3 µM and 5.1 µM.
In the case of `COC(=O)C[C@H]1C[C@@H](O)[C@@H](C)[C@@H](c2ccc(F)cc2)N1`, the half-maximal inhibitory concentration (IC50) amounted to 26.6 µM in the test on A549 (setting [1]), 51.7 µM in the test on DU-145 (setting [2]), 19.8 µM with HeLa (setting [3]) and 15.6 µM in the test on MCF7 (setting [4]).
In the case of `COC(=O)C[C@H]1C[C@H](O)[C@@H](C)[C@@H](c2ccc(F)cc2)N1`, the half-inhibitory concentration (IC50) was 17.2 µM in the test on A549 (setting [1]), “Not Active” in the test on DU-145 (du-145), 17.4 µM with HeLa (setting [3]) and 18.2 µM in the test with MCF7 (setting [4]).
In the case of `COC(=O)C[C@H]1C[C@@H](O)[C@H](C)[C@@H](c2ccccc2)N1`, the IC50 is 34.6 µM in the test with A549 (setting [1]), 64.1 µM with DU-145 (setting [2]), 35.2 µM with HeLa (setting [3]) and 35.6 µM with MCF7 (setting [4]).
Consider `COC(=O)C[C@H]1C[C@H](O)[C@H](C)[C@@H](c2ccccc2)N1`, for which the IC50 was 69.2 µM in the test on A549 (setting [1]), “Not Active” with DU-145 (du-145), 41.1 µM in the test with HeLa (setting [3]) and “Not Active” with MCF7 (mcf7).
On to `C[C@H]1[C@H](O)C[C@@H](CCO)N[C@H]1c1ccccc1`, for which the IC50 turned out to be 31.2 µM with A549 (setting [1]), 41.6 µM with DU-145 (setting [2]), 31.5 µM in the test with HeLa (setting [3]) and 39.8 µM in the test on MCF7 (setting [4]).
For the molecule `C[C@H]1[C@H](O)C[C@@H](CC(=O)O)N[C@H]1c1ccccc1`, the concentration for half-maximal inhibition (IC50) with A549 (setting [1]) came out at 28.9 µM; in the test on DU-145 (setting [2]) it was 46.5 µM; with HeLa (setting [3]), 33.4 µM; in the test on MCF7 (setting [4]) it was 23.1 µM.
The matching figures for `COc1ccc([C@H]2N[C@@H](CCO)C[C@H](O)[C@H]2C)cc1`: 17.6 µM, 14.8 µM, 16.5 µM and 13.7 µM.
Turning to `COc1ccc([C@H]2N[C@@H](CC(=O)O)C[C@H](O)[C@H]2C)cc1`, the IC50 in the test on A549 (setting [1]) worked out at 20.1 µM; in the test on DU-145 (setting [2]), 15.7 µM; in the test with HeLa (setting [3]) it was 19.9 µM; in the test on MCF7 (setting [4]), 12.5 µM.
As for `COc1cccc2c1C(=O)c1c(O)c3c(c(O)c1C2=O)C[C@@](O)(C(=O)CO)C[C@@H]3O[C@H]1C[C@H](N)[C@H](O)[C@H](C)O1` [DOXORUBICIN], the values for the IC50 with A549 (setting [1]), in the test on HeLa (setting [3]) and in the test on MCF7 (setting [4]) were 0.6 µM, 0.7 µM and 0.6 µM, respectively.
